From paper PMC8541911 (Molecular cell, 2021) come the findings set out here.

Type in all cases: cell-based
Experiment [1] has as its target mouse μOR receptor (Flag-μOR-2x) (Mus musculus, UniProt P42866, M72T). As to the kind of experiment: G protein activation assay. The note with it: Gi1-2-3 and Goa-b activation, HEK293 cells.
For experiment [2], the target named is T1, human μOR receptor fused to YFP (Homo sapiens, UniProt P35372).
Experiment [3] has as its target T1, human μOR receptor fused to YFP. The source holds these as a separate data set.
Experiment [4] has as its target SNAP-μOR receptor (Homo sapiens, UniProt P35372).
For experiment [5], the system named is μ-opioid receptor (μOR).

T1 sequence (P35372 whole entry, the tested form may be a part): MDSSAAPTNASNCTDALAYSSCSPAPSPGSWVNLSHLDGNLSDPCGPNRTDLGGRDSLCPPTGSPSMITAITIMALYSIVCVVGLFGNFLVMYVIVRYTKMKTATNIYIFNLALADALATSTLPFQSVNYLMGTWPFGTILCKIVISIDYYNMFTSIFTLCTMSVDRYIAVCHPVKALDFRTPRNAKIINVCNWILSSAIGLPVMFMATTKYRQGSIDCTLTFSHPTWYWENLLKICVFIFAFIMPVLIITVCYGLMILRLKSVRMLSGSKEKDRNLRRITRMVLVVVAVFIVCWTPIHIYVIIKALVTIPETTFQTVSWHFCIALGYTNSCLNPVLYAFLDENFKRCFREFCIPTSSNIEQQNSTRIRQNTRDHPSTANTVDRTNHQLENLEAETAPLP
Chain of mouse μOR receptor (Flag-μOR-2x) (P42866 whole entry M72T, the tested form may be a part): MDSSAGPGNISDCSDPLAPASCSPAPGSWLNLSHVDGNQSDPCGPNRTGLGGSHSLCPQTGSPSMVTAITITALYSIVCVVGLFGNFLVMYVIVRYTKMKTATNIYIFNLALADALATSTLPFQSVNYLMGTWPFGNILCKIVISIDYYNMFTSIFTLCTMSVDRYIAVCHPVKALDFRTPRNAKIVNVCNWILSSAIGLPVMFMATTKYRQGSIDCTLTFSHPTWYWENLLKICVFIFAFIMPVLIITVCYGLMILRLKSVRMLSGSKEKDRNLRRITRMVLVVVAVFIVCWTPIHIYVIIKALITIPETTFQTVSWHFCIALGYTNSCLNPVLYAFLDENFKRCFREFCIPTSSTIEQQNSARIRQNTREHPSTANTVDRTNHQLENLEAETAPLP
Chain of SNAP-μOR receptor (P35372 whole entry): as the sequence (P35372 whole entry, the tested form may be a part) above

For the compound `COc1ccsc1CNCC[C@@]1(c2ccccn2)CCOC2(CCCC2)C1` [oliceridine], the “Agonist behaviour in G protein assays” value in experiment [1] is reported as “full agonists”. In addition, the “Recruitment of GRK2/5 (response)” value in experiment [2] is “nearly no response”. Further, in experiment [3], the “Recruitment of β-arrestin-1/2 (response)” value is reported as “nearly no response”. For the same compound, the “μOR internalization (response)” value in experiment [4] is “nearly no response”. In experiment [5], the “Classification of agonism and bias” value is listed as “G protein-biased full agonists”.

In the case of `C[C@@H](Cc1ccsc1)NC(=O)NC[C@H](Cc1ccc(O)cc1)N(C)C` [PZM21], in experiment [1], the “Agonist behaviour in G protein assays” value is reported as “full agonists”. Besides, the “Classification of agonism and bias” value in experiment [5] is “G protein-biased full agonists”.

With “[D-Ala^2, N-Me-Phe^4, Gly^5-ol]-Enkephalin acetate salt [DAMGO]”, in experiment [5], the “Classification of agonism and bias” value is “unbiased full agonists”.
